# According to PMC11229374, “Unlocking the potential of protein-derived peptides to target G-quadruplex DNA: from recognition to anticancer activity” (Nucleic Acids Research, 2024):
# *: point of attachment. FITC = O=C1OC2(c3ccc(O)cc3Oc3cc(O)ccc32)c2ccc(NC(=S)*)cc21; AEEA = NCCOCCOCC(=O)O
# T1: FITC-Myb397-415 (UniProt P11938 397-415)
# T1 chain: {FITC-AEEA}-NHTGNSIRHRFRVYLSKRL-NH2
# T2: FITC-MybA400 (UniProt P11938 397-415, G400A)
# T2 chain: {FITC-AEEA}-NHTANSIRHRFRVYLSKRL-NH2
# T3: Myb397-415 (UniProt P11938 397-415)
# T3 chain: NHTGNSIRHRFRVYLSKRL
# T4: MybA400 (UniProt P11938 397-415, G400A)
# T4 chain: NHTANSIRHRFRVYLSKRL
# T5: MybA412 (Saccharomyces cerevisiae, UniProt P11938 397-415, S412A)
# T5 chain: NHTGNSIRHRFRVYLAKRL
# Columns and labels:
# [1] = system: U2OS cells; test: Viability assay (crystal violet), U2OS; assay type: cell-based; details: 72 h treatment
# Description: U2OS, HCT116 and MDA-MB-231 cells were purchased from the ATCC and grown in Dulbecco modified Eagle's medium (DMEM; EuroClone, Milan, Italy; ECM0728L) supplemented with 10% Fetal Bovine Serum (FBS, ThermoFisher Scientific/Gibco, Waltham, MA, USA; 10270-106), 2 mM L-glutamine and antibiotics in a humidified incubator at 37°C with 5% CO2 and atmospheric O2 concentration. Cell lines were authenticated and tested to be mycoplasma-free.
# U2OS, HCT116, and MDA-MB-231 cells were seeded in 24-well plates at a density of 1 × 10^4, 20 × 10^3 and 12 × 10^3 for each well, respectively. After 24 h, cells were treated with the indicated peptides and incubated at 37°C for additional 72 h. Upon treatment completion, cell medium was removed, the wells were washed twice in phosphate-buffered saline (PBS) and fixed with 4% formaldehyde for 15 min at room temperature (RT). After washing, 500 μl of crystal violet staining solution (Sigma-Aldrich, St. Louis, MO, USA) was added to each well and incubated for 30 min at RT. Finally, the plates were rinsed twice with water, air-dried and cell pellets were dissolved in 400 μl of a 10% aqueous solution of acetic acid. In total, 200 μl of each sample was transferred to a 96-well plate, and the optical density was measured at 570 nm (OD570) with an ELISA reader (Thermo Scientific, Waltham, MA, USA). The average absorbance in each condition was used to calculate the viability expressed as a percentage of treated vs untreated conditions (CTR).
# [2] = system: γH2AX in U2OS cells; test: Immunofluorescence of γH2AX (DNA damage); assay type: cell-based; details: 10 μM peptide, 24 h
# Description: To evaluate telomere-localized DNA damage, FISH assay with a telomeric probe was combined to IF staining of γH2AX. Cells were seeded on glass coverslips in a 6-well plate at a density of 1 × 10^5 cells/well. After 24 h of treatment with indicated peptides, cells were washed three times with PBS 1×, fixed with formaldehyde 4% in PBS for 2 min at RT and washed three times with PBS 1×. The fixation protocol was repeated twice and then the samples were dehydrated by sequential exposure to 70%, 90% and 100% EtOH and DNA was denatured by incubation at 80°C for 3 min in the presence of the telomere probe solution (10 mM of Tris pH 7.2, MgCl2 buffer, 70% of deionized formamide, […] of TelC-Cy3 telomeric probe (Panagene, Daejeon, Korea), 0.25% of blocking reagent). […] For quantitative analysis of γH2AX positive cells, at least 200 cells/condition were scored in triplicate. For Telomere-Induced Foci (TIFs) analysis, at least 25 γH2AX-positive cells on a single plane were scored. […] Fluorescence signals were recorded with Zeiss Laser Scanning Microscope 510 Meta (63× magnification) (Zeiss, Germany) and the experiment was analyzed with Adobe Photoshop CC 2019.
# [3] = system: G4; test: CD experiments, G4-stabilizing properties of R7W conjugate versus parent; assay type: binding; details: CD experiments (Supplementary Figure S39)
# From the text: The buffer baseline was subtracted from each spectrum.
# [4] = system: BCL-2; test: Real-time RT-PCR of BCL-2 expression; assay type: cell-based; details: U2OS, 10 μM peptide, 8, 16 and 24 h
# Description: (§1) U2OS cells were seeded on glass coverslips in a 6-well plate at a density of 2 × 10^5 cells/well and treated with the peptides for 8, 16, and 24 h. Total RNA was isolated from the cell lines using WizPrep™ Total RNA Mini Kit (Cell). The quality and the quantity of RNA extraction was assessed by evaluating the A280/A260 nm and A260/A230 nm absorbance ratio (Nanodrop 1000, Thermo Fisher Scientific). The mRNA Reverse Transcription (RT) was performed using the QuantiTect Reverse Transcription Kit (Qiagen). mRNA expression was evaluated by SYBR Green (Applied Biosystems) in the QuantStudio 6 Flex Detection system (ThermoFisher Scientific). Primer sequences are indicated in Supplementary Table S2.
# [5] = system: HER2; test: Real-time RT-PCR of HER2 expression; assay type: cell-based; details: U2OS, 10 μM peptide, 8, 16 and 24 h
# Description: as §1
# [6] = biological target: T1, FITC-Myb397-415; test: microscale thermophoresis; 5 mM KH2PO4/K2HPO4, 20 mM KCl (c-MYC stock annealed in LiCl), pH 7.0; MST 25 C with 0.1% Tween, 5% DMSO, 20 nM labelled peptide, DNA titrated (stocks from 10 or 20 uM, mixed 1:1); ITC 25 C; details: tags: N-terminal FITC-O2Oc; C-terminal NH2; parallel G4
# [7] = biological target: T2, FITC-MybA400; test: MST; 20 mM K+; 5 mM KH2PO4/K2HPO4 pH 7.0, 20 mM KCl (LiCl for c-MYC stock), 25 C; MST with 0.1% Tween and 5% DMSO, 20 nM FITC-peptide; details: tags: N-terminal FITC; parallel G4
# [8] = biological target: T3, Myb397-415; test: isothermal titration calorimetry; 5 mM KH2PO4/K2HPO4, 20 mM KCl (c-MYC stock annealed in LiCl), pH 7.0; MST 25 C with 0.1% Tween, 5% DMSO, 20 nM labelled peptide, DNA titrated (stocks from 10 or 20 uM, mixed 1:1); ITC 25 C; details: tags: N-acetyl; C-terminal NH2; chain copies: 2; parallel G4
# [9] = biological target: T4, MybA400; test: as above; details: tags: N-acetyl; C-terminal NH2; chain copies: 2; parallel G4
# [10] = biological target: T5, MybA412; test: as above; details: tags: N-acetyl; C-terminal NH2; chain copies: 2; parallel G4
molecule,measurement,setting,value
"RRRRRRRW-GG-NHTANSIRHRFRVYLSKRL [R7W-Myb^A400, Myb^A400 N-terminally conjugated to the cell-penetrating peptide R7W via a glycine–glycine spacer]","Inhibition of tumour cell growth, R7W-conjugated peptides",[1],essentially to the same extent as R7W-Myb^397–415
same,Accumulation of phosphorylated histone H2AX (γH2AX),[2],most pronounced response
RRRRRRRW-GG-NHTGNSIRHRFRVYLSKRL [R7W-Myb^397–415],IC50,[1]; read-out: IC50 (concentration of drug capable of killing 50% of cells),~5 µM
same,G4-stabilizing properties compared with Myb^397–415,[3],no significant differences
same,BCL-2 expression level,[4],transiently modulated
same,HER2 expression level,[5],transiently modulated
CGGGCGGGCGCTAGGGAGGGT (structured_DNA) [c-KIT2],Kd,[6],130 ± 15 nM
same,Kd,[7],~170 nM
same,Kd,[8],200 ± 12 nM
same,Kd,[9],137 ± 24 nM
same,Kd,[10],187 ± 28 nM
